In US20250127170A1, “TRIAZINE HERBICIDAL COMPOUNDS” (SYNGENTA CROP PROTECTION AG, priority 2021, published 2025):

Tests used:
Format in all cases: in vivo
Conditions in all cases: 312 h, evaluated after 13 days, 100=total damage to plant, 0=no damage to plant
Lolium perenne (LOLPE) [1] = assay: Post-emergence biological efficacy
Experimental: (§1) Seeds of weeds and/or crops were sown in standard soil in pots (Amaranthus palmeri (AMAPA), Chenopodium album (CHEAL), Euphorbia heterophylla (EPHHL), Ipomoea hederacea (IPOHE), Eleusine indica (ELEIN), Lolium perenne (LOLPE), Digitaria sanguinalis (DIGSA), Setaria faberi (SETFA), Echinochloa crus-galli (ECHCG)). After cultivation for 14 days under controlled conditions in a glasshouse (at 24/19° C., day/night; 16 hours light), the plants were sprayed with an aqueous spray solution derived from the formulation of the technical active ingredient in a small amount of acetone and a special solvent and emulsifier mixture referred to as IF50 (11.12% Emulsogen EL360™+44.44% N-methylpyrrolidone+44.44% Dowanol DPM glycol ether), to create a 50 g/l solution which was then diluted using 0.2% Genapol XO80 as diluent to give the desired final dose of test compound. The test plants were then grown under controlled conditions in the glasshouse (at 24/18° C., day/night; 15 hours light; 50% humidity) and watered twice daily. After 13 days the test was evaluated (100=total damage to plant; 0=no damage to plant).

[2] = test system: Echinochloa crus-galli (ECHCG); assay: Post-emergence biological efficacy
Experimental: as §1

[3] = test system: Amaranthus palmeri (AMAPA); assay: Post-emergence biological efficacy
Experimental: as §1

[4] = test system: Euphorbia heterophylla (EPHHL); assay: Post-emergence biological efficacy
Experimental: as §1

[5] = test system: Ipomoea hederacea (IPOHE); assay: Post-emergence biological efficacy
Experimental: as §1

Setaria faberi (SETFA) [6] = assay: Post-emergence biological efficacy
Experimental: as §1

[7] = test system: Digitaria sanguinalis (DIGSA); assay: Post-emergence biological efficacy
Experimental: as §1

[8] = test system: Chenopodium album (CHEAL); assay: Post-emergence biological efficacy
Experimental: as §1

Eleusine indica (ELEIN) = assay: Post-emergence biological efficacy
Experimental: as §1

Lolium perenne (LOLPE) [9] = assay: Pre-emergence biological efficacy
Experimental: (§2) Seeds of weeds and/or crops were sown in standard soil in pots (Amaranthus palmeri (AMAPA), Lolium perenne (LOLPE), Euphorbia heterophylla (EPHHL), Ipomoea hederacea (IPOHE), Setaria faberi (SETFA), Echinochloa crus-galli (ECHCG)). After cultivation for one day under controlled conditions in a glasshouse (at 24/19° C., day/night; 16 hours light), the plants were sprayed with an aqueous spray solution derived from the formulation of the technical active ingredient in a small amount of acetone and a special solvent and emulsifier mixture referred to as IF50 (11.12% Emulsogen EL360™+44.44% N-methylpyrrolidone+44.44% Dowanol DPM glycol ether), to create a 50 g/l solution which was then diluted using 0.2% Genapol XO80 as diluent to give the desired final dose of test compound.
(§3) The test plants were then grown under controlled conditions in the glasshouse (at 24/18° C., day/night; 15 hours light; 50% humidity) and watered twice daily. After 13 days the test was evaluated (100=total damage to plant; 0=no damage to plant).

[10] = test system: Echinochloa crus-galli (ECHCG); assay: Pre-emergence biological efficacy
Experimental: as §2, §3

[11] = test system: Amaranthus palmeri (AMAPA); assay: Pre-emergence biological efficacy
Experimental: as §2, §3

[12] = test system: Euphorbia heterophylla (EPHHL); assay: Pre-emergence biological efficacy
Experimental: as §2, §3

[13] = test system: Ipomoea hederacea (IPOHE); assay: Pre-emergence biological efficacy
Experimental: as §2, §3

Setaria faberi (SETFA) [14] = assay: Pre-emergence biological efficacy
Experimental: as §2, §3

Compound	pest or weed control at 250 g/ha (Lolium perenne (LOLPE) [1])	pest or weed control at 250 g/ha [2]	pest or weed control at 250 g/ha [3]	pest or weed control at 250 g/ha [4]	pest or weed control at 250 g/ha [5]	pest or weed control at 250 g/ha (Setaria faberi (SETFA) [6])	pest or weed control at 250 g/ha [7]	pest or weed control at 250 g/ha [8]	pest or weed control at 250 g/ha (Eleusine indica (ELEIN))	pest or weed control at 250 g/ha (Lolium perenne (LOLPE) [9])	pest or weed control at 250 g/ha [10]	pest or weed control at 250 g/ha [11]	pest or weed control at 250 g/ha [12]	pest or weed control at 250 g/ha [13]	pest or weed control at 250 g/ha (Setaria faberi (SETFA) [14])
CCOC(=O)[C@H]1C[C@@H](OC(=O)c2cc(-n3c(=O)n(C)c(=S)n(C)c3=O)c(F)cc2Cl)C1 [1-981 (cis), (cis)-(3-Ethoxycarbonylcyclobutyl) 2-chloro-5-(3,5-dimethyl-2,6-dioxo-4-thioxo-1,3,5-triazinan-1-yl)-4-fluoro-benzoate]	70%	80%	80%	60%	50%	100%	50%	100%	50%	80%	100%	100%	50%	70%	50%
CCOC(=O)COC(=O)c1cc(-n2c(=O)n(C)c(=S)n(C)c2=O)c(F)cc1Cl [Compound 1-12, (2-ethoxy-2-oxo-ethyl]-2-chloro-5-(3,5-dimethyl-2,6-dioxo-4-thioxo-1,3,5-triazinan-1-yl)-4-fluoro-benzoate]	100%	100%	100%	100%	100%	100%	100%	100%	100%	90%	90%	100%	90%	80%	80%
COC(=O)CNC(=O)c1cc(-n2c(=O)n(C)c(=S)n(C)c2=O)c(F)cc1Cl [Compound 1-35, Methyl 2-[[2-chloro-5-(3,5-dimethyl-2,6-dioxo-4-thioxo-1,3,5-triazinan-1-yl)-4-fluoro-benzoyl]amino]acetate]	10%	40%	30%	70%	50%	40%	40%	20%	40%	70%	80%	30%	40%	0%	10%
CCOC(=O)[C@H](C)OC(=O)c1cc(-n2c(=O)n(C)c(=S)n(C)c2=O)c(F)cc1Cl [Compound 1-63 (S-enantiomer), [(1S)-2-ethoxy-1-methyl-2-oxo-ethyl]-2-chloro-5-(3,5-dimethyl-2,6-dioxo-4-thioxo-1,3,5-triazinan-1-yl)-4-fluoro-benzoate]	100%	100%	100%	100%	100%	100%	100%	100%	100%	90%	100%	100%	90%	60%	80%
CCOC(=O)C(CC)OC(=O)c1cc(-n2c(=O)n(C)c(=S)n(C)c2=O)c(F)cc1Cl (stereo not shown) [Compound 1-114, 1-Ethoxycarbonylpropyl 2-chloro-5-(3,5-dimethyl-2,6-dioxo-4-thioxo-1,3,5-triazinan-1-yl)-4-fluoro-benzoate]	30%	60%	20%	70%	40%	30%	20%	70%	20%	70%	100%	100%	40%	10%	10%
CCNC(=O)C(C)(C)OC(=O)c1cc(-n2c(=O)n(C)c(=S)n(C)c2=O)c(F)cc1Cl [Compound 1-168, [2-(ethylamino)-1,1-dimethyl-2-oxo-ethyl] 2-chloro-5-(3,5-dimethyl-2,6-dioxo-4-thioxo-1,3,5-triazinan-1-yl)-4-fluoro-benzoate]	100%	100%	100%	100%	100%	100%	100%	100%	100%	100%	100%	100%	100%	90%	100%
CCOC(=O)C1(NC(=O)c2cc(-n3c(=O)n(C)c(=S)n(C)c3=O)c(F)cc2Cl)CC1 [Compound 1-240, ethyl 1-[[2-chloro-5-(3,5-dimethyl-2,6-dioxo-4-thioxo-1,3,5-triazinan-1-yl)-4-fluoro-benzoyl]amino]cyclopropanecarboxylate]	90%	30%	100%	100%	60%	80%	70%	100%	100%	30%	30%	100%	100%	10%	70%
CCOC(=O)C1(N(C)C(=O)c2cc(-n3c(=O)n(C)c(=S)n(C)c3=O)c(F)cc2Cl)CC1 [Compound 1-252, Ethyl 1-[[2-chloro-5-(3,5-dimethyl-2,6-dioxo-4-thioxo-1,3,5-triazinan-1-yl)-4-fluoro-benzoyl]-methyl-amino]cyclopropanecarboxylate]	40%	0%	50%	40%	30%	0%	0%	70%	50%	–	–	100%	–	–	–
CCOC(=O)CCNC(=O)c1cc(-n2c(=O)n(C)c(=S)n(C)c2=O)c(F)cc1Cl [Compound 1-342, Ethyl 3-[[2-chloro-5-(3,5-dimethyl-2,6-dioxo-4-thioxo-1,3,5-triazinan-1-yl)-4-fluoro-benzoyl]amino]propanoate]	20%	80%	30%	40%	70%	80%	50%	30%	10%	70%	90%	80%	90%	60%	80%
